{"source": "patent US8952024B2", "about": "“Herbicidal pyrimidone derivatives” (E I du Pont de Nemours and Company, priority 2009, dated 2015)", "format_in_all_cases": "in vivo", "key": {"[1]": {"test_system": "windgrass (Apera spica-venti)", "test": "Test B postemergence plant response", "how_it_was_run": "(§1)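 Visual ratings from 0 (no effect) to 100 (complete control), made against controls 13–15 days after treatment, kept in a greenhouse. Compounds were applied postemergence to potted plants at the 1- to 4-leaf stage (2–18 cm).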"}, "[2]": {"test_system": "chickweed (Stellaria media)", "test": "Test B postemergence plant response", "how_it_was_run": "as §1"}, "[3]": {"test_system": "winter barley (Hordeum vulgare)", "test": "Test B postemergence plant response", "settings": "for Barley plant response rating (0 to 100 scale): 62 g ai/ha, 0 is no effect", "how_it_was_run": "as §1"}, "[4]": {"test_system": "canarygrass (Phalaris minor)", "test": "Test B postemergence plant response", "how_it_was_run": "as §1"}, "[5]": {"test_system": "rice (Oryza sativa)", "test": "Test B flooded paddy test", "settings": "for Plant response rating, Rice: Flood (flooded paddy test), 13 to 15 days; for Rice plant response rating: Flood, 31 g ai/ha, scale 0 to 100 (0 no effect, 100 complete control)", "how_it_was_run": "(§2)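 Plants were grown to the 2-leaf stage, then pots were flooded to 3 cm above the soil and compounds were applied directly into the paddy water. That depth was held throughout. After 13 to 15 days in a greenhouse, injury was visually rated against controls on a 0–100 scale.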"}, "[6]": {"test_system": "umbrella sedge (Cyperus difformis)", "test": "Test B flooded paddy test", "settings": "for Plant response rating, Sedge, Umbrella: Flood (flooded paddy test), 13 to 15 days; for Sedge, Umbrella plant response rating: Flood, 31 g ai/ha, scale 0 to 100 (0 no effect, 100 complete control)", "how_it_was_run": "as §2"}, "[7]": {"test_system": "ducksalad (Heteranthera limosa)", "test": "Test B flooded paddy test", "settings": "for Plant response rating, Ducksalad: Flood (flooded paddy test), 13 to 15 days; for Ducksalad plant response rating: Flood, 31 g ai/ha, scale 0 to 100 (0 no effect, 100 complete control)", "how_it_was_run": "as §2"}, "[8]": {"test_system": "barnyardgrass (Echinochloa crus-galli)", "test": "Test B flooded paddy test", "settings": "for Plant response rating, Barnyardgrass: Flood (flooded paddy test), 13 to 15 days; for Barnyardgrass plant response rating: Flood, 31 g ai/ha, scale 0 to 100 (0 no effect, 100 complete control)", "how_it_was_run": "as §2"}, "[9]": {"test_system": "ragweed (common ragweed, Ambrosia elatior)", "test": "Test B pre-/postemergence plant response", "how_it_was_run": "(§3)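 Pre-em in loam/sand; post-em at 1–4 leaf (2–18 cm) in peat mix. Solvent + surfactant formulation. Greenhouse 13–15 d; visual % control vs untreated, 0–100.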"}, "[10]": {"test_system": "Italian ryegrass (Lolium multiflorum)", "test": "Test B pre-/postemergence plant response", "how_it_was_run": "as §3"}, "[11]": {"test_system": "giant foxtail (Setaria faberii)", "test": "Test B pre-/postemergence plant response", "how_it_was_run": "as §3"}, "[12]": {"settings": "Postemergence, 31 g ai/ha, 0 to 100 scale (0 no effect, 100 complete control)"}, "[13]": {"settings": "Postemergence, 125 g ai/ha, scale 0 to 100 (0 no effect, 100 complete control)"}, "[14]": {"settings": "Postemergence, 250 g ai/ha, scale 0 to 100 (0 no effect, 100 complete control), 13 to 15 days"}, "[15]": {"settings": "postemergence, 100 is complete control, 13 to 15 days"}, "[16]": {"settings": "125 g ai/ha, scale 0 to 100, 0 is no effect, 100 is complete control"}, "[17]": {"settings": "31 g ai/ha, postemergence, scale 0 to 100, 0 is no effect, 100 is complete control"}, "[18]": {"settings": "62 g ai/ha, postemergence, 0 is no effect, 100 is complete control, 13 to 15 days"}, "[19]": {"settings": "Postemergence, 250 g ai/ha, scale 0 to 100 (0 no effect, 100 complete control)"}, "[20]": {"settings": "Postemergence, 125 g ai/ha, visual rating after 13 to 15 days, scale 0 (no effect) to 100 (complete control)"}, "[21]": {"settings": "250 g ai/ha, flooded paddy test, visual rating on 0 to 100 scale (0 no effect, 100 complete control) after 13 to 15 days"}, "[22]": {"settings": "62 g ai/ha, scale of 0 to 100 where 0 is no effect and 100 is complete control"}}}
{"smiles": "CCCn1c(-c2cc(Cl)cc(Cl)c2)ncc(C(=O)C2=C(O)CCCC2=O)c1=O", "note": "[Compound 173]", "values": [{"measurement": "Plant response rating, Windgrass", "setting": "[1]; [12]", "result": 30}, {"measurement": "Plant response rating, Windgrass", "setting": "[1]; [13]", "result": 70}, {"measurement": "Plant response rating, Windgrass", "setting": "[1]; [14]", "result": 75}, {"measurement": "Plant response rating, Chickweed", "setting": "[2]; [12]", "result": 65}, {"measurement": "Plant response rating, Chickweed", "setting": "[2]; [13]", "result": 100}, {"measurement": "Plant response rating, Chickweed", "setting": "[2]; [14]", "result": 100}, {"measurement": "Barley plant response rating (0 to 100 scale)", "setting": "[3]; [15]", "result": 20}, {"measurement": "Plant response rating, Barley", "setting": "[3]; [12]", "result": 5}, {"measurement": "Plant response rating, Barley", "setting": "[3]; [13]", "result": 35}, {"measurement": "Plant response rating, Barley", "setting": "[3]; [14]", "result": 50}, {"measurement": "Plant response rating, Canarygrass", "setting": "[4]; [12]", "result": 10}, {"measurement": "Plant response rating, Canarygrass", "setting": "[4]; [13]", "result": 40}, {"measurement": "Plant response rating, Canarygrass", "setting": "[4]; [14]", "result": 80}, {"measurement": "Plant response rating, Rice", "setting": "[5]; [16]", "result": 15}, {"measurement": "Rice plant response rating", "setting": "[5]", "result": 0}, {"measurement": "Plant response rating, Sedge, Umbrella", "setting": "[6]; [16]", "result": 85}, {"measurement": "Sedge, Umbrella plant response rating", "setting": "[6]", "result": 0}, {"measurement": "Plant response rating, Ducksalad", "setting": "[7]; [16]", "result": 75}, {"measurement": "Ducksalad plant response rating", "setting": "[7]", "result": 30}, {"measurement": "Plant response rating, Barnyardgrass", "setting": "[8]; [16]", "result": 15}, {"measurement": "Barnyardgrass plant response rating", "setting": "[8]", "result": 0}, {"measurement": "Plant response rating, Ragweed", "setting": "[9]; [12]", "result": 55}, {"measurement": "Plant response rating, Ragweed", "setting": "[9]; [13]", "result": 90}, {"measurement": "Plant response rating, Ragweed", "setting": "[9]; [14]", "result": 98}, {"measurement": "Plant response rating, Ryegrass, Italian", "setting": "[10]; [12]", "result": 0}, {"measurement": "Plant response rating, Ryegrass, Italian", "setting": "[10]; [13]", "result": 30}, {"measurement": "Plant response rating, Ryegrass, Italian", "setting": "[10]; [14]", "result": 30}, {"measurement": "Plant response rating, Foxtail, Giant", "setting": "[11]; [12]", "result": 95}, {"measurement": "Plant response rating, Foxtail, Giant", "setting": "[11]; [13]", "result": 100}, {"measurement": "Plant response rating, Foxtail, Giant", "setting": "[11]; [14]", "result": 100}]}
{"smiles": "CCCn1c(-c2ccsc2)ncc(C(=O)C2=C(O)CCCC2=O)c1=O", "note": "[Compound 93]", "values": [{"measurement": "Plant response rating, Windgrass", "setting": "[1]; [17]", "result": 5}, {"measurement": "Windgrass plant response rating (0 to 100 scale)", "setting": "[1]; [18]", "result": 10}, {"measurement": "Plant response rating, Windgrass", "setting": "[1]; [19]", "result": 55}, {"measurement": "Plant response rating, Chickweed", "setting": "[2]; [17]", "result": 80}, {"measurement": "Chickweed plant response rating (0 to 100 scale)", "setting": "[2]; [18]", "result": 80}, {"measurement": "Plant response rating, Chickweed", "setting": "[2]; [20]", "result": 95}, {"measurement": "Plant response rating, Chickweed", "setting": "[2]; [19]", "result": 98}, {"measurement": "Plant response rating, Barley", "setting": "[3]; [17]", "result": 0}, {"measurement": "Barley plant response rating (0 to 100 scale)", "setting": "[3]; [15]", "result": 0}, {"measurement": "Plant response rating, Barley", "setting": "[3]; [20]", "result": 5}, {"measurement": "Plant response rating, Barley", "setting": "[3]; [19]", "result": 5}, {"measurement": "Plant response rating, Canarygrass", "setting": "[4]; [17]", "result": 0}, {"measurement": "Canarygrass plant response rating (0 to 100 scale)", "setting": "[4]; [18]", "result": 0}, {"measurement": "Plant response rating, Canarygrass", "setting": "[4]; [20]", "result": 5}, {"measurement": "Plant response rating, Canarygrass", "setting": "[4]; [19]", "result": 10}, {"measurement": "Plant response rating, Flood, Rice", "setting": "[5]; [21]", "result": 45}, {"measurement": "Plant response rating, Rice", "setting": "[5]; [22]", "result": 15}, {"measurement": "Plant response rating, Rice", "setting": "[5]; [16]", "result": 20}, {"measurement": "Rice plant response rating", "setting": "[5]", "result": 0}, {"measurement": "Plant response rating, Flood, Sedge, Umbrella", "setting": "[6]; [21]", "result": 90}, {"measurement": "Plant response rating, Sedge, Umbrella", "setting": "[6]; [22]", "result": 75}, {"measurement": "Plant response rating, Sedge, Umbrella", "setting": "[6]; [16]", "result": 80}, {"measurement": "Sedge, Umbrella plant response rating", "setting": "[6]", "result": 70}, {"measurement": "Plant response rating, Flood, Ducksalad", "setting": "[7]; [21]", "result": 80}, {"measurement": "Plant response rating, Ducksalad", "setting": "[7]; [22]", "result": 55}, {"measurement": "Plant response rating, Ducksalad", "setting": "[7]; [16]", "result": 80}, {"measurement": "Ducksalad plant response rating", "setting": "[7]", "result": 40}, {"measurement": "Plant response rating, Flood, Barnyardgrass", "setting": "[8]; [21]", "result": 85}, {"measurement": "Plant response rating, Barnyardgrass", "setting": "[8]; [22]", "result": 60}, {"measurement": "Plant response rating, Barnyardgrass", "setting": "[8]; [16]", "result": 75}, {"measurement": "Barnyardgrass plant response rating", "setting": "[8]", "result": 30}, {"measurement": "Plant response rating, Ragweed", "setting": "[9]; [17]", "result": 65}, {"measurement": "Ragweed plant response rating (0 to 100 scale)", "setting": "[9]; [18]", "result": 75}, {"measurement": "Plant response rating, Ragweed", "setting": "[9]; [19]", "result": 98}, {"measurement": "Plant response rating, Ryegrass, Italian", "setting": "[10]; [17]", "result": 0}, {"measurement": "Ryegrass, Italian plant response rating (0 to 100 scale)", "setting": "[10]; [18]", "result": 0}, {"measurement": "Plant response rating, Ryegrass, Italian", "setting": "[10]; [19]", "result": 0}, {"measurement": "Plant response rating, Foxtail, Giant", "setting": "[11]; [17]", "result": 70}, {"measurement": "Foxtail, Giant plant response rating (0 to 100 scale)", "setting": "[11]; [18]", "result": 80}, {"measurement": "Plant response rating, Foxtail, Giant", "setting": "[11]; [19]", "result": 85}]}
